For one data set, the system named is PGD2. The settings on record: dosed intranasally, phase I/II, allergic rhinitis; cited from earlier work.
For data set [1] the following is noted: phase II clinical trial, allergic rhinitis; cited from earlier work.
Data set [2] deals with T1, recombinant human GST-SYK (Homo sapiens, UniProt P43405).
T1 construct: purchased Carna Biosciences 08-176
Briefly: Homogeneous Time-Resolved Fluorescence (HTRF) assay for the recombinant human Syk enzyme. It is filed as biochemical. The settings on record: GST-hSYK 5 pM, ATP 25 μM, 10-dose titration 10 μM to 0.508 nM. The method, boiled down:
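GST-hSYK fusion phosphorylates a peptide for 45 min at room temperature. Quenched with EDTA buffer containing 2 nM Eu-anti-phosphotyrosine antibody and 70 nM SA-APC. HTRF signal read after 30 min.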

The mark [3] stands for this setting: read-out: rhSYK Activity (IC50 rating).

Each structure is given as a SMILES string. Read-outs that look alike come from different tables or passages of the source.

Take `Oc1cccc(Nc2ncc(F)c(Nc3cccc(O)c3)n2)c1` [Example R112]: in the data set on PGD2, the PGD2 level result is recorded as “statistically significant decrease” and the clinical safety result is recorded as “safe across a range of indicators”. For the same molecule, the efficacy versus placebo entry in data set [1] was “lack of efficacy”. Usually IC50 stands for the concentration at which inhibition is half-maximal. As to `CCc1cccc(Nc2cc(N[C@@H]3CS(=O)(=O)CC[C@@H]3N)cnc2C(N)=O)n1` (relative stereo) [Example 1.91, rel-5-{[(3S,4S)-4-amino-1,1-dioxidotetrahydro-2H-thiopyran-3-yl]amino}-3-[(6-ethylpyridin-2-yl)amino]pyridine-2 carboxamide], the half-inhibitory concentration (IC50) in data set [2] (setting [3]) is below 10 nM. Take `CCc1cccc(Nc2cc(N[C@@H]3CCCC[C@@H]3N)cnc2C(N)=O)n1` [Example 13, 5-{[(1R,2S)-2-aminocyclohexyl]amino}-3-[(6-ethylpyridin-2-yl)amino]pyridine-2-carboxamide]: the IC50 in data set [2] (setting [3]) is below 10 nM. In the case of `Cc1cc(O)cc(Nc2cc(N[C@@H]3CCCC[C@@H]3N)cnc2C(N)=O)n1` [Example 11, 5-{[(1R,2S)-2-aminocyclohexyl]amino}-3-[(4-hydroxy-6-methylpyridin-2-yl)amino]pyridine-2-carboxamide], the IC50 in data set [2] (setting [3]) is 10 to 100 nM. As for `Cc1cc(C)n2nc(Nc3cc(N[C@@H]4CCCC[C@@H]4N)cnc3C(N)=O)cc2n1` [Example 1.55, 5-{[(1R,2S)-2-aminocyclohexyl]amino}-3-[(5,7-dimethylpyrazolo[1,5-a]pyrimidin-2-yl)amino]pyridine-2-carboxamide], the IC50 in data set [2] (setting [3]) is below 10 nM.

Consider `Cc1nc(Nc2cc(N[C@@H]3CCCC[C@@H]3N)cnc2C(N)=O)ccc1-c1ccc2c(=O)nc[nH]c2c1` [Example 3.21, 5-{[(1R,2S)-2-aminocyclohexyl]amino}-3-{[6-methyl-5-(4-oxo-1,4-dihydroquinazolin-7-yl)pyridin-2-yl]amino}pyridine-2-carboxamide], for which, in data set [2] (setting [3]), the IC50 was below 10 nM. Take `CCC(CN)Nc1cnc(C(N)=O)c(Nc2ccn(-c3ccc(F)cc3)n2)c1` (centres unmarked) [Example 1.96, 5-{[1-(aminomethyl)propyl]amino}-3-{[1-(4-fluorophenyl)-1H-pyrazol-3-yl]amino}pyridine-2-carboxamide]: in data set [2] (setting [3]), the IC50 is below 10 nM. `NC(=O)c1ncc(N[C@@H]2CCCC[C@@H]2N)cc1Nc1cnn(-c2ccccc2)n1` [Example 1.51, 5-{[(1R,2S)-2-aminocyclohexyl]amino}-3-[(2-phenyl-2H-1,2,3-triazol-4-yl)amino]pyridine-2-carboxamide]: the IC50 in data set [2] (setting [3]) is below 10 nM. Turning to `Cn1ccc(Nc2cc(N[C@H]3[C@@H](N)CCCC3(F)F)cnc2C(N)=O)n1` [Example 1.86, 5-{[(1S,6S)-6-amino-2,2-difluorocyclohexyl]amino}-3-[(1-methyl-1H-pyrazol-3-yl)amino]pyridine-2-carboxamide], the IC50 in data set [2] (read-out: IC50) was 63 nM; in data set [2] (setting [3]) it was 10 to 100 nM. In the case of `Cc1cc(C)nc(Nc2cc(N[C@@H]3CCOC[C@@H]3N)cnc2C(N)=O)c1` [Example 1.130, 5-{[(3R,4R)-3-aminotetrahydro-2H-pyran-4-yl]amino}-3-[(4,6-dimethylpyridin-2-yl)amino]pyridine-2-carboxamide], in data set [2] (setting [3]), the IC50 is below 10 nM. Turning to `CN1CCN(Cc2cccc(Nc3cc(N[C@@H]4CCCC[C@@H]4N)cnc3C(N)=O)n2)CC1` [Example 1.61, 5-{[(1R,2S)-2-aminocyclohexyl]amino}-3-({6-[(4-methylpiperazin-1-yl)methyl]pyridin-2-yl}amino)pyridine-2-carboxamide], the IC50 in data set [2] (setting [3]) was 100 to 1000 nM.

The record behind these values is patent publication US9216173B2, “2-Pyridyl carboxamide-containing spleen tyrosine kinase (SYK) inhibitors” (Merck Sharp & Dohme Corp., priority 2011, dated 2015).
